Paper PMC6634946 (The FEBS journal, 2019)

Legend:
Format in all cases: cell-based, human
U-2 OS cells [1] = experiment: Western blot analysis of p53, p21 expression; conditions: 24 hours, (R)-5a effect at 5 and 10 μM
U-2 OS cells [2] = experiment: Real-time PCR of p53-target genes; conditions: 6 hours, 10 μM (R)-5a, 5 μM RG7388, normalized to GAPDH
U-2 OS cells [3] = experiment: Cell cycle analysis; conditions: 24 hours, 5 μM, control 55%
SJSA-1 cells = experiment: Caspase 3/7 activity assay; conditions: SJSA-1, 24 or 48 hours
U-2 OS cells [4] = experiment: Caspase 3/7 activity assay; conditions: 24 or 48 hours

Structure (SMILES): COc1ccc(C2=N[C@@H](c3ccc(Cl)cc3)[C@@H](c3ccc(Cl)cc3)N2C(=O)N2CCNC(=O)C2)c(OC(C)C)c1 [Nutlin-3]
- expression of p53 and p21 protein (U-2 OS cells [1]): increased the expression of p21 and p53

Structure (SMILES): COc1cc(C(=O)O)ccc1NC(=O)[C@@H]1N[C@@H](CC(C)(C)C)[C@](C#N)(c2ccc(Cl)cc2F)[C@H]1c1cccc(Cl)c1F [RG7388, Idasanutlin]
- expression of p53 and p21 protein (U-2 OS cells [1]): increased the expression of p21 and p53
- MDM2 and CDKN1A transcripts (U-2 OS cells [2]): significant increase of MDM2 and CDKN1A transcripts
- percentage of S-phase cells (U-2 OS cells [3]): 0.5%
- induction of apoptosis (caspase 3/7 activity) (SJSA-1 cells): induced apoptosis only in SJSA-1 cells
- induction of apoptosis (caspase 3/7 activity) (U-2 OS cells [4]): not in U-2 OS cells

Structure (SMILES): CN[C@@H]1C[C@H]2O[C@@](C)([C@@H]1OC)n1c3ccccc3c3c4c(c5c6ccccc6n2c5c31)C(=O)NC4 [Staurosporine]
- induction of apoptosis (caspase 3/7 activity) (SJSA-1 cells): induced apoptosis in both cell lines
- induction of apoptosis (caspase 3/7 activity) (U-2 OS cells [4]): induced apoptosis in both cell lines
